Measured values from patent US20060252825A1, “Crystal forms of {[(2r)-7-(2,6-dichlorophenyl)-5-fluoro-2,3-dihydro-1-benzofuran-2-yl]methyl}amine hydrochloride” (Wyeth, priority 2005, published 2006).
Values joined by “and” are separate entries in the source; they are usually repeats but may differ in a detail not shown here. Equal values may be shown once. Where a name gives a salt, the structure may show the parent alone.

Key:
Format in all cases: physicochemical
[1] = Assessment of stability in water (slurry at 25° C., form identified by XRPD); conditions: slurried in water at 25° C.; for Form after 2 days / Form after 4 days: Table A; for Form after 2 days / Form after 4 days / Stability in water (overall summary): hydrochloride; for Stability in water (overall summary): summary of Tables A-D
Method: Form I, Form II or a mixture thereof was slurried in water at 25° C. to assess stability. […] XRPD was used to identify crystalline form.

[2] = Solubility in water, gravimetric method
Method: Solubility was measured using the gravimetric method by separately suspending Form I and Form II in water with stirring at room temperature for 6 hours.

[3] = Conversion of Form I to Form II by slurrying in water at 25° C. (XRPD); conditions: slurried in water at 25° C. with stirring
Method: Form I was slurried in water for 1 day and for 5 days at 25° C. with stirring.

[4] = Conversion of Form II to Form I by slurrying in t-butylmethyl ether (XRPD); conditions: slurried in t-butylmethyl ether for 4 days at room temperature
From the text: Form II was slurried in t-butylmethyl ether for 4 days at room temperature. The resulting solid was characterized by XRPD as Form I.

SMILES | Form after 2 days ([1]; XRPD) | solubility at 6 h ([2]; water, thermodynamic from solid, suspended in water with stirring at room temperature for 6 hours, gravimetric) [mg/mL] | Form after 4 days ([1]; XRPD) | Form after 3 days ([1]; Table C, XRPD) | Stability in water (overall summary) [1] | Crystalline form after 1 day ([3]; 1 day) | Crystalline form after 5 days ([3]; 5 days) | Relative thermodynamic stability based on solubility data ([2]; inferred from water solubility of Forms I and II, hydrochloride) | Solubility-Water ([2]; suspended in water with stirring at room temperature for 6 hours, gravimetric, hydrochloride) | Resulting solid form [4]
NC[C@H]1Cc2cc(F)cc(-c3c(Cl)cccc3Cl)c2O1 [50:50 I:II, {[(2R)-7-(2,6-dichlorophenyl)-5-fluoro-2,3-dihydro-1-benzofuran-2-yl]methyl}amine hydrochloride] | trace I |  |  |  |  |  |  |  |  | 
NC[C@H]1Cc2cc(F)cc(-c3c(Cl)cccc3Cl)c2O1 [Form I, {[(2R)-7-(2,6-dichlorophenyl)-5-fluoro-2,3-dihydro-1-benzofuran-2-yl]methyl}amine hydrochloride] | I, trace II | 67 | Increased amount of II | mainly II, some I | converted to Form II under most of the conditions tested | substantial conversion of the solid from Form I to Form II | no detectable amount of Form I |  |  | 
NC[C@H]1Cc2cc(F)cc(-c3c(Cl)cccc3Cl)c2O1 [Form II, {[(2R)-7-(2,6-dichlorophenyl)-5-fluoro-2,3-dihydro-1-benzofuran-2-yl]methyl}amine hydrochloride] |  |  |  |  | stable in water |  |  | thermodynamically more stable in water than Form I | 51 mg/mL and 50 mg/mL | Form I
NC[C@H]1Cc2cc(F)cc(-c3c(Cl)cccc3Cl)c2O1 [I seeded with II, {[(2R)-7-(2,6-dichlorophenyl)-5-fluoro-2,3-dihydro-1-benzofuran-2-yl]methyl}amine hydrochloride] | increased amount of II |  | increased amount of II |  |  |  |  |  |  | 
